Strand notation (5' to 3'): a small letter for the sugar, then the base; units joined by * are phosphorothioate-linked, units joined directly phosphodiester-linked; [ ] holds rarer units or linkages, { } end groups; capitals alone tell only the bases. k = constrained ethyl (cEt); [5mC] = 5-methylcytosine; d = 2'-deoxy (DNA)
Tested on: Yap1 mRNA
Test: Antisense inhibition of human Yap1 in A-431 cells by cEt gapmers, single dose (Example 2, RTS4814)
Format: cell-based
Settings: A-431 cells, 5,000 cells per well, free uptake, 2,000 nM modified oligonucleotide, approx. 48 hours, RTS4814, normalized to RIBOGREEN; Table 4; asterisk (*) = targets amplicon region of primer probe set
In short: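 Free uptake, 2,000 nM, ~48 h, A-431 at 5,000 cells/well. Readout: RT-qPCR (RTS4814), RIBOGREEN-normalized, % UTC. 16-mer 3-10-3 cEt gapmers, full PS backbone, all C as 5-methylcytosine.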

Row | Substance | YAP1 (% UTC)
1 | 716499 (kT*kT*kT*dT*dG*d[5mC]*d[5mC]*d[5mC]*dT*d[5mC]*d[5mC]*dT*d[5mC]*k[5mC]*kA*kA; antisense) [Compound 716499] | 102 % UTC
2 | 716433 (kA*kG*k[5mC]*dA*dT*d[5mC]*dT*dG*dA*d[5mC]*dT*dT*d[5mC]*kT*kA*kA; antisense) [Compound 716433] | 20 % UTC
3 | 716520 (antisense kA*kG*kT*d[5mC]*dT*dT*dT*dA*dT*dT*dA*dA*dA*kG*kA*kG) [Compound 716520] | 96 % UTC
4 | 716538 (antisense kT*k[5mC]*kT*dG*dA*dA*dA*d[5mC]*dT*d[5mC]*d[5mC]*dA*dA*kA*kT*k[5mC]) [Compound 716538] | 77 % UTC
5 | 716373 (k[5mC]*kA*kA*d[5mC]*dT*dG*d[5mC]*dA*dG*dA*dG*dA*dA*kG*k[5mC]*kT; antisense) [Compound 716373] | 69 % UTC
6 | 716385 (kT*kT*k[5mC]*d[5mC]*d[5mC]*dA*dT*d[5mC]*d[5mC]*dA*dT*d[5mC]*dA*kG*kG*kA; antisense) [Compound 716385] | 87 % UTC
7 | 716553 (kA*kT*k[5mC]*d[5mC]*dA*d[5mC]*d[5mC]*dT*dG*dA*dG*d[5mC]*dA*k[5mC]*kT*k[5mC]; antisense) [Compound 716553] | 54 % UTC

Same assay, conditions: Table 5; A-431 cells, 5,000 cells per well, free uptake, 2,000 nM modified oligonucleotide, approx. 48 hours; RTS4814; normalized to RIBOGREEN; Yap1 mRNA relative to untreated control cells

Row | Substance | YAP1 (% UTC)
8 | 716575 (kA*kA*kA*dG*dA*dA*d[5mC]*dT*dT*dA*dG*dT*dT*k[5mC]*k[5mC]*k[5mC]; antisense) [Compound 716575] | 84 % UTC
9 | 716404 (k[5mC]*kG*kT*d[5mC]*dA*dT*dT*dG*dT*dT*d[5mC]*dT*d[5mC]*kA*kA*kT; antisense) [Compound 716404] | 63 % UTC

Same assay, conditions: Table 6; A-431 cells, 5,000 cells per well, free uptake, 2,000 nM modified oligonucleotide, approx. 48 hours; RTS4814; normalized to RIBOGREEN; Yap1 mRNA relative to untreated control cells

Row | Substance | YAP1 (% UTC)
10 | 716456 (kA*k[5mC]*k[5mC]*dA*d[5mC]*dA*d[5mC]*dT*dA*dT*dT*dA*dT*kA*kA*kA; antisense) [Compound 716456] | 96 % UTC
11 | 716381 (kT*kG*kT*d[5mC]*dT*dG*dA*dT*d[5mC]*dG*dA*dT*dG*kT*kG*kA; antisense) [Compound 716381] | 35 % UTC
12 | 716501 (kG*k[5mC]*kA*d[5mC]*dT*dG*dA*dA*dA*dG*dT*dA*d[5mC]*kT*kT*kA; antisense) [Compound 716501] | 32 % UTC
13 | 716486 (kA*kT*k[5mC]*dA*dT*dG*dA*dT*dT*dA*dT*d[5mC]*dT*k[5mC]*kT*kA; antisense) [Compound 716486] | 68 % UTC

Same assay, conditions: Table 18; A-431 cells, 5,000 cells per well, free uptake, 2,000 nM modified oligonucleotide, approx. 48 hours; RTS4814; normalized to RIBOGREEN; Yap1 mRNA as percent of untreated control

Row | Substance | YAP1 (% UTC)
14 | 1076420 (k[5mC]*k[5mC]*kA*dT*dA*dT*dA*dA*dT*dA*dA*d[5mC]*d[5mC]*k[5mC]*kA*kT; antisense) [Compound 1076420] | 26 % UTC
15 | 1076132 (k[5mC]*kA*kT*d[5mC]*dA*dA*dT*dA*d[5mC]*dT*dG*dA*d[5mC]*kA*kT*k[5mC]; antisense) [Compound 1076132] | 28 % UTC
16 | 1076260 (k[5mC]*kT*kT*dA*dA*dT*dT*dT*dA*dA*d[5mC]*dT*d[5mC]*k[5mC]*kT*kG; antisense) [Compound 1076260] | 3 % UTC

Same assay, conditions: Table 19; A-431 cells, 5,000 cells per well, free uptake, 2,000 nM modified oligonucleotide, approx. 48 hours; RTS4814; normalized to RIBOGREEN; Yap1 mRNA as percent of untreated control

Row | Substance | YAP1 (% UTC)
17 | 1074981 (antisense kT*kT*kA*dT*dT*dG*d[5mC]*d[5mC]*dA*dG*dT*dT*d[5mC]*kT*kT*kG) [Compound 1074981] | 9 % UTC

Same assay, conditions: Table 20; Yap1 mRNA, percent of untreated control; 3-10-3 cEt gapmers targeting SEQ ID NO.: 1 and 2

Row | Substance | YAP1 (% UTC)
18 | 1075462 (antisense kG*kT*kT*dT*dA*dT*dA*dG*dA*d[5mC]*dA*dA*dG*kT*k[5mC]*kA) [Compound 1075462] | 15 % UTC

Same assay, conditions: Table 21; Yap1 mRNA, percent of untreated control; 3-10-3 cEt gapmers targeting SEQ ID NO.: 1 and 2

Row | Substance | YAP1 (% UTC)
19 | 1075303 (kT*kA*kA*dA*d[5mC]*dT*dA*dA*dT*d[5mC]*dT*dA*d[5mC]*kA*kA*k[5mC]; antisense) [Compound 1075303] | 100 % UTC
20 | 1075335 (k[5mC]*kT*kT*dA*dA*dT*dA*dA*dT*d[5mC]*dT*dA*d[5mC]*k[5mC]*kA*kG; antisense) [Compound 1075335] | 30 % UTC

Same assay, conditions: Table 22; Yap1 mRNA as percent of untreated control; 3-10-3 cEt gapmers; single dose

Row | Substance | YAP1 (% UTC)
21 | 1076360 (k[5mC]*kT*kA*dT*dT*dT*dA*dT*d[5mC]*d[5mC]*dT*dA*dG*kT*kT*kA; antisense) [Compound 1076360] | 59 % UTC
22 | 1075720 (k[5mC]*kT*kT*dT*dA*d[5mC]*dT*dA*d[5mC]*dA*dT*dA*dT*kA*kG*k[5mC]; antisense) [Compound 1075720] | 47 % UTC
23 | 1076328 (kA*k[5mC]*kT*dG*dA*dA*d[5mC]*d[5mC]*dG*d[5mC]*dT*dG*d[5mC]*k[5mC]*kT*k[5mC]; antisense) [Compound 1076328] | 33 % UTC
24 | 1076168 (k[5mC]*kA*kA*dA*dT*dT*dT*dA*d[5mC]*dA*d[5mC]*d[5mC]*dA*k[5mC]*k[5mC]*kG; antisense) [Compound 1076168] | 23 % UTC
25 | 1075112 (antisense kA*kT*kA*dT*dA*dG*dG*dA*dA*dT*dA*dT*dG*kG*kG*kT) [Compound 1075112] | 6 % UTC
26 | 1075592 (k[5mC]*kG*kT*dA*dA*dT*dA*dA*dT*d[5mC]*dA*d[5mC]*d[5mC]*kT*kT*kA; antisense) [Compound 1075592] | 55 % UTC

Same assay, conditions: Table 23; Yap1 mRNA as percent of untreated control; 3-10-3 cEt gapmers; single dose

Row | Substance | YAP1 (% UTC)
27 | 1075625 (kA*kA*kT*d[5mC]*dT*dA*dT*dA*dA*d[5mC]*d[5mC]*d[5mC]*dT*kT*kA*kT; antisense) [Compound 1075625] | 49 % UTC
28 | 1076553 (antisense kT*kG*kG*dG*dA*dA*dT*dA*dA*dT*dT*dT*dG*kG*k[5mC]*k[5mC]) [Compound 1076553] | 69 % UTC

Same assay, conditions: Table 24; Yap1 mRNA as percent of untreated control; 3-10-3 cEt gapmers targeting SEQ ID NO.: 1, and 2

Row | Substance | YAP1 (% UTC)
29 | 1075082 (antisense k[5mC]*kT*kT*dT*dA*dG*dA*dT*dA*d[5mC]*dA*dA*dG*kA*kG*kG) [Compound 1075082] | 80 % UTC
30 | 1074890 (antisense kG*kA*kA*dG*dT*dT*dT*dA*dG*d[5mC]*d[5mC]*dT*dG*kA*kA*kG) [Compound 1074890] | 58 % UTC

Same assay, conditions: Table 25; Yap1 mRNA as percent of untreated control; 3-10-3 cEt gapmers targeting SEQ ID NO.: 1, and 2

Row | Substance | YAP1 (% UTC)
31 | 1075339 (kA*k[5mC]*k[5mC]*d[5mC]*dA*dA*dA*dA*dA*d[5mC]*dT*dA*dG*k[5mC]*kT*kT; antisense) [Compound 1075339] | 70 % UTC
32 | 1076171 (kA*kT*kT*dA*dG*dT*dA*dA*dA*dG*dA*dG*dT*kA*k[5mC]*kT; antisense) [Compound 1076171] | 30 % UTC
33 | 1074475 (kA*k[5mC]*k[5mC]*dA*dA*d[5mC]*d[5mC]*d[5mC]*d[5mC]*d[5mC]*d[5mC]*d[5mC]*dA*k[5mC]*k[5mC]*kG; antisense) [Compound 1074475] | 72 % UTC
34 | 1076267 (kA*kT*kT*dT*dA*dA*dG*dG*dT*dG*d[5mC]*dA*dT*kA*kA*kG; antisense) [Compound 1076267] | 13 % UTC
35 | 1074411 (antisense kT*kG*kT*dG*dA*dA*dA*dG*dA*dG*dG*dT*d[5mC]*kA*kG*k[5mC]) [Compound 1074411] | 3 % UTC

Same assay, conditions: Table 32; Yap1 mRNA, percent of untreated control; 3-10-3 cEt gapmers targeting SEQ ID NO.: 1, and 2

Row | Substance | YAP1 (% UTC)
36 | 1074514 (kA*kA*kG*dG*dA*dT*dA*d[5mC]*dA*dT*dT*d[5mC]*d[5mC]*kA*k[5mC]*kT; antisense) [compound 1074514] | 25 % UTC
37 | 1076498 (kT*kT*kA*d[5mC]*dA*dA*dT*dA*d[5mC]*d[5mC]*dT*dT*dA*kT*kG*kA; antisense) [compound 1076498] | 70 % UTC
38 | 1076434 (k[5mC]*kT*kT*dT*dA*dG*dG*dT*dT*dT*dA*dT*dG*k[5mC]*k[5mC]*kT; antisense) [compound 1076434] | 25 % UTC
39 | 1075858 (antisense k[5mC]*k[5mC]*kT*dT*dA*dA*dA*d[5mC]*dA*dA*dT*d[5mC]*d[5mC]*k[5mC]*kT*kA) [compound 1075858] | 23 % UTC

Same assay, conditions: Table 33; Yap1 mRNA, percent of untreated control; 3-10-3 cEt gapmers targeting SEQ ID NO.: 1, and 2

Row | Substance | YAP1 (% UTC)
40 | 1076083 (k[5mC]*kG*k[5mC]*dT*dA*dT*dA*dA*dA*dG*dT*dG*dG*k[5mC]*kA*kT; antisense) [compound 1076083] | 46 % UTC

Same assay, conditions: Yap1 mRNA as percent of untreated control; A-431 cells; 3-10-3 cEt gapmers targeting SEQ ID NO.: 1, and 2; Table 30

Row | Substance | YAP1 (% UTC)
41 | 1075760 (kG*kA*kG*dA*dA*dA*dA*dA*d[5mC]*dT*dA*d[5mC]*dG*kG*kA*kT; antisense) [compound 1075760] | 39 % UTC

Same assay, conditions: Yap1 mRNA as percent of untreated control; A-431 cells; 3-10-3 cEt gapmers targeting SEQ ID NO.: 1, and 2; Table 31

Row | Substance | YAP1 (% UTC)
42 | 1074289 (antisense kT*kG*kA*d[5mC]*dT*dG*dA*dT*dT*d[5mC]*dT*d[5mC]*dT*kG*kG*kT) [compound 1074289] | 13 % UTC
43 | 1075921 (antisense kG*kA*kA*dA*dG*dA*dA*dA*dG*d[5mC]*dT*dG*d[5mC]*kG*k[5mC]*kA) [compound 1075921] | 93 % UTC
44 | 1075345 (antisense kG*kT*kA*dA*d[5mC]*dT*dA*dA*dA*dA*dG*dG*dG*kA*kG*kT) [compound 1075345] | 29 % UTC
45 | 1075665 (antisense kA*kT*kT*dT*dA*dG*dT*dT*dG*dT*dG*d[5mC]*dA*k[5mC]*kA*kG) [compound 1075665] | 87 % UTC

— US11214803B2, “Modulators of YAP1 expression” (Ionis Pharmaceuticals, Inc., priority 2019, dated 2022)
